The results in this text go back to ChEMBL document CHEMBL4049432, “Structure-Guided Discovery of Potent and Selective Inhibitors of ERK1/2 from a Modestly Active and Promiscuous Chemical Start Point” (J Med Chem, 2017).

The nature of data set [1]: Octanol-aqueous phosphate buffer distribution coefficient, log D of the compound at pH 7.4. It counts as physicochemical.
A short description of data set [2]: Volume of distribution at steady state in dog plasma. It counts as ADME, Canis lupus familiaris. The following applies: read-out: Vdss.
A short description of data set [3]: Oral bioavailability in rat. To be noted: in vivo. The class given is ADME, organism-based.
A short description of data set [4]: Volume of distribution at steady state in rat plasma. The class given is ADME. To be noted: read-out: Vdss.
Data set [5] in a line: Oral bioavailability in dog. It counts as ADME, organism-based, Canis lupus familiaris. The following applies: in vivo.

Each structure is given as a SMILES string.

`COCCN1C(=O)c2cc(-c3ccnc(Nc4ccnn4C)n3)[nH]c2C[C@@H]1C` returned a log distribution coefficient (logD) in data set [1] of 1.8.
Take `COCCN1C(=O)c2cc(-c3nc(Nc4ccnn4C)ncc3C)[nH]c2C[C@H]1C`: the logD in data set [1] came to 2.14.
On to `Cc1cccc(CN2CCc3[nH]c(-c4ccnc(NC5CCOCC5)n4)cc3C2=O)n1`, for which the logD in data set [1] turned out to be 2.4.
For the molecule `CN1CCc2[nH]c(-c3ccnc(NC4CCOCC4)n3)cc2C1=O`, in data set [1], the logD turned out to be 1.6.
Consider `Cc1cccc(CN2C(=O)c3cc(-c4nc(Nc5ccnn5C)ncc4C)cn3C[C@H]2C)n1`, for which the Vd in data set [2] amounted to 0.9 L/kg; in data set [4], 1.3 L/kg. Besides, the figures for the bioavailability in data set [3] and in data set [5] were 31% and 87%, respectively.
Take `O=C1NCCn2cc(-c3ccnc(NC4CCOCC4)n3)cc21`: in data set [1], the logD worked out at 0.75.
`COCCN1CCc2[nH]c(-c3ccnc(Nc4ccnn4C)n3)cc2C1=O` registered a pH-dependent lipophilicity (logD) in data set [1] of 1.4.
On the same count and under the same terms, for `COCCN1CCc2[nH]c(-c3ccnc(NC4CCOCC4)n3)cc2C1=O` the value was 1.6.
On the same count and under the same terms, with `O=C1c2cc(-c3ccnc(NC4CCOCC4)n3)[nH]c2CCN1[C@H](CO)c1ccccc1` the figure was 2.6; with `Cn1c(-c2ccnc(NC3CCOCC3)n2)cc2c1CCNC2=O`, 1.3; with `O=C1NCCc2[nH]c(-c3ccnc(NC4CCOCC4)n3)cc21`, 1.3.
The same measure, in the same setting: with `COCCN1CCc2c(cc(-c3ccnc(NC4CCOCC4)n3)n2C)C1=O` the figure was 1.7; with `COCCN1C(=O)c2cc(-c3nc(Nc4ccnn4C)ncc3C)cn2C[C@H]1C`, 1.7; with `COCCN1C(=O)c2cc(-c3nc(Nc4ccnn4C)ncc3C)[nH]c2C[C@@H]1C`, 2.11.
With `COCCN1C(=O)c2cc(-c3ccnc(Nc4ccnn4C)n3)[nH]c2C[C@H]1C`, the logD in data set [1] is 1.7.
Take `COCCN1CCn2cc(-c3nc(Nc4ccnn4C)ncc3C)cc2C1=O`: the logD in data set [1] was determined as 1.3.
`O=C1c2cc(-c3ccnc(NC4CCOCC4)n3)[nH]c2CCN1[C@H](CO)c1ccc(F)c(Cl)c1` returned a log distribution coefficient (logD) in data set [1] of 3.6.
In data set [1], `O=C1c2cc(-c3ccnc(NC4CCOCC4)n3)[nH]c2CCN1Cc1ccccc1` displayed a logD of 3.2.
As to `COCCN1C(=O)c2cc(-c3nc(Nc4ccnn4C)ncc3C)cn2C[C@@H]1C`, the logD in data set [1] came to 1.6.
Regarding `O=C1c2cc(-c3ccnc(NC4CCOCC4)n3)[nH]c2CCN1[C@H](CO)c1ccc(Cl)c(F)c1`, the logD in data set [1] turned out to be 3.5.
Same read-out and setting: with `Cc1cccc(CN2CCn3cc(-c4nc(Nc5ccnn5C)ncc4C)cc3C2=O)n1` the figure was 2.2.
On the same count and under the same terms, with `Cn1c(-c2ccnc(NC3CCOCC3)n2)cc2c1CCN(Cc1ccccc1)C2=O` the figure was 3.3; with `CN1CCN(c2ccc(Nc3nccc(-c4cc5c([nH]4)CCNC5=O)n3)cc2)CC1`, 1.5; with `Cc1cccc(CN2C(=O)c3cc(-c4ccnc(Nc5ccnn5C)n4)cn3CC2C)n1` (single isomer, unassigned; isomer 2), 2.3.
